“And” between values parts separate entries of the source, which are not always exact repeats. Identical values can stand only once.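 All cell lines were grown in 96-well plates and treated with compound for 48 hours. GI50 is the concentration that inhibits growth by half. At the TGI there is no net growth.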

Test systems include HT29 colon; SK-MEL-5 melanoma; RPMI-8226 leukemia; MALME-3M melanoma; MCF7 breast; HOP-62 NSCLC; M14 melanoma; OVCAR-8 ovarian; NCI-H522 lung; SF-539 CNS.
Common to all, as to test: inhibition of tumour cell growth, NCI panel, 48 h

Take `O=C(NC(=S)NNC(=S)NNc1ccccc1)c1ccccc1`: the GI50 with HT29 colon is 15.1 µM; in the assay with SK-MEL-5 melanoma, 3.73 µM; in the assay with RPMI-8226 leukemia, 3.55 µM; with MALME-3M melanoma, 24.2 µM; in the assay on MCF7 breast, 2.92 µM; in the assay with HOP-62 NSCLC, 4.7 µM. Besides, the GI50 in the assay with M14 melanoma was 7.45 µM; in the assay on OVCAR-8 ovarian, 4.68 µM; in the assay with NCI-H522 lung it was 0.489 µM; in the assay on SF-539 CNS it was 3.94 µM. In addition, the TGI in the assay with HT29 colon, in the assay with SK-MEL-5 melanoma, in the assay on RPMI-8226 leukemia, in the assay with MALME-3M melanoma, with MCF7 breast and with HOP-62 NSCLC was greater than 100 µM in each case. The TGI in the assay on M14 melanoma was 55.6 µM; in the assay on OVCAR-8 ovarian, greater than 100 µM; with NCI-H522 lung, 3.42 µM; in the assay on SF-539 CNS, 44.1 µM.
`CC(=O)OC1CCC2(C)C(CCC3C4CC=C(C(C)=O)C4(C)OC(=O)CC32)C1` (stereo unspecified): the GI50 in the assay on HT29 colon was 1.6 µM; in the assay with SK-MEL-5 melanoma, 2.13 µM; in the assay with RPMI-8226 leukemia, 1.79 µM; in the assay on MALME-3M melanoma it was 1.61 µM; in the assay on MCF7 breast, 1.4 µM; with HOP-62 NSCLC, 4.06 µM. Further, the GI50 in the assay with M14 melanoma is 1.71 µM; in the assay on OVCAR-8 ovarian, 2.13 µM; in the assay with NCI-H522 lung, 1.22 µM; in the assay on SF-539 CNS, 1.8 µM. Besides, the TGI was 3.09 µM in the assay with HT29 colon; 4.95 µM in the assay with SK-MEL-5 melanoma; 4.86 µM in the assay on RPMI-8226 leukemia; 3.67 µM with MALME-3M melanoma; 3.01 µM with MCF7 breast; 14.7 µM with HOP-62 NSCLC. Also, the TGI was determined as 3.51 µM in the assay with M14 melanoma, 7.49 µM in the assay with OVCAR-8 ovarian, 2.64 µM with NCI-H522 lung and 3.55 µM in the assay with SF-539 CNS.
On to `N#CSCc1c(Cl)cccc1Cl`, for which the GI50 with HT29 colon is 3.75 µM; with SK-MEL-5 melanoma it was 4.5 µM; in the assay with RPMI-8226 leukemia it was less than 0.0506 µM; with MALME-3M melanoma, 8.71 µM; with MCF7 breast, 3.27 µM; with HOP-62 NSCLC, 36.6 µM. Besides, the GI50 with M14 melanoma was 3.05 µM; in the assay on OVCAR-8 ovarian, 4.8 µM; in the assay on NCI-H522 lung it was 2.07 µM; in the assay with SF-539 CNS, 3.45 µM. Moreover, the TGI with HT29 colon was greater than 100 µM; with SK-MEL-5 melanoma, 21.2 µM; with RPMI-8226 leukemia, 1.33 µM; in the assay with MALME-3M melanoma, greater than 100 µM; in the assay on MCF7 breast it was greater than 100 µM; with HOP-62 NSCLC it was greater than 100 µM. Besides, the TGI was greater than 100 µM in the assay on M14 melanoma, greater than 100 µM in the assay with OVCAR-8 ovarian, 6.33 µM with NCI-H522 lung and greater than 35.5 µM with SF-539 CNS.
For `CC1(C)CC(=O)c2c(ccc(C(=O)C[C@H](N)CO)c2N)O1`, the TGI is 17.5 µM and > 33.3 µM with HT29 colon; 17.5 µM and > 33.3 µM in the assay with SK-MEL-5 melanoma; 17.5 µM in the assay on RPMI-8226 leukemia; greater than 33.3 µM in the assay on MALME-3M melanoma; 17.5 µM and > 33.3 µM in the assay on MCF7 breast; 17.5 µM and > 33.3 µM in the assay on HOP-62 NSCLC. The TGI in the assay with M14 melanoma is 17.5 µM and 11.3 µM; with OVCAR-8 ovarian it was 17.5 µM and > 33.3 µM; in the assay with NCI-H522 lung it was 17.5 µM; in the assay with SF-539 CNS, 17.5 µM and 7.43 µM. In addition, the GI50 in the assay with SK-MEL-5 melanoma was 2.87 µM and 5.08 µM; with RPMI-8226 leukemia it was 4.62 µM; in the assay on MALME-3M melanoma it was greater than 33.3 µM; in the assay with HOP-62 NSCLC it was 2.39 µM; with OVCAR-8 ovarian, 5.68 µM and 2.17 µM; in the assay with NCI-H522 lung, 2.57 µM and 4.58 µM.
Take `CCCCCCCCCCCC[n+]1ccccc1`: the GI50 in the assay on HT29 colon is 0.381 µM; in the assay on SK-MEL-5 melanoma, 1.06 µM; in the assay on RPMI-8226 leukemia, 0.29 µM; in the assay with MALME-3M melanoma it was 1.18 µM; in the assay with MCF7 breast, 1.25 µM; in the assay with HOP-62 NSCLC, 1.9 µM. Moreover, the GI50 is 0.835 µM with M14 melanoma, 1.03 µM in the assay on OVCAR-8 ovarian, 0.665 µM with NCI-H522 lung and 1.47 µM in the assay with SF-539 CNS. The TGI was determined as 5.47 µM in the assay with HT29 colon; 2.26 µM in the assay with SK-MEL-5 melanoma; 1.67 µM in the assay with RPMI-8226 leukemia; 3.41 µM in the assay on MALME-3M melanoma; 9.38 µM in the assay on MCF7 breast; 5.57 µM in the assay on HOP-62 NSCLC. In addition, the TGI was determined as 2.82 µM in the assay on M14 melanoma, 5.28 µM with OVCAR-8 ovarian, 2.84 µM with NCI-H522 lung and 4.9 µM in the assay on SF-539 CNS.
Take `CC1(O)CC2(O)C=CC3=C(C(=O)c4cccc(O)c4C3=O)C2(O)C(=O)C1O` (stereo unspecified): the TGI is 5.95 µM with HT29 colon; 7.58 µM in the assay on SK-MEL-5 melanoma; 4.66 µM in the assay with RPMI-8226 leukemia; 0.966 µM in the assay on MALME-3M melanoma; 2.6 µM in the assay with MCF7 breast; 36.4 µM with HOP-62 NSCLC. Further, the TGI in the assay with M14 melanoma is 2.74 µM; with OVCAR-8 ovarian it was 8.08 µM; in the assay on NCI-H522 lung it was 0.29 µM; in the assay on SF-539 CNS, 10 µM.
With `CN1CCN(Cc2ccc(NC(=O)c3nc4ccc5[nH]ncc5c4c4c3CCC4)cc2C(F)(F)F)CC1`, the GI50 was 1.02 µM with HT29 colon; 7.47 µM in the assay with SK-MEL-5 melanoma; 1.14 µM in the assay on RPMI-8226 leukemia; 0.8 µM in the assay on MALME-3M melanoma; 0.906 µM in the assay with MCF7 breast; 0.867 µM in the assay with HOP-62 NSCLC. Also, the GI50 with M14 melanoma is 0.934 µM; with OVCAR-8 ovarian, 1.05 µM; with NCI-H522 lung it was 0.981 µM; in the assay with SF-539 CNS it was 0.879 µM. Moreover, the TGI in the assay with HT29 colon is 2.08 µM; in the assay with SK-MEL-5 melanoma, 14.1 µM; in the assay on RPMI-8226 leukemia it was 2.82 µM; in the assay with MALME-3M melanoma, 1.52 µM; with MCF7 breast it was 1.82 µM; in the assay on HOP-62 NSCLC, 1.71 µM. In addition, the TGI in the assay with M14 melanoma was determined as 1.76 µM; with OVCAR-8 ovarian, 2.22 µM; in the assay on NCI-H522 lung, 2.31 µM; in the assay with SF-539 CNS, 1.58 µM.
On to `NC(CSc1nc2ccccn2c1[N+](=O)[O-])C(=O)O` (stereo unspecified), for which the TGI in the assay with HT29 colon, with SK-MEL-5 melanoma, with RPMI-8226 leukemia, in the assay with MALME-3M melanoma, in the assay on MCF7 breast and with HOP-62 NSCLC was greater than 100 µM each time. Further, the TGI with M14 melanoma, with OVCAR-8 ovarian, in the assay on NCI-H522 lung and in the assay on SF-539 CNS was greater than 100 µM in each case.
Turning to `O=C(O)CCCSc1nc2ccccc2s1`, the TGI with HT29 colon, with SK-MEL-5 melanoma, in the assay with RPMI-8226 leukemia, in the assay with MALME-3M melanoma, with MCF7 breast and in the assay with HOP-62 NSCLC was greater than 100 µM in each case. In addition, the TGI with M14 melanoma, in the assay on OVCAR-8 ovarian, in the assay on NCI-H522 lung and in the assay with SF-539 CNS was greater than 100 µM in each case.
On to `O=C(NNc1ccccc1)OCc1ccccc1`, for which the GI50 in the assay on HT29 colon is 54.6 µM; with SK-MEL-5 melanoma it was 16.8 µM; in the assay on RPMI-8226 leukemia it was 17.3 µM; in the assay with MALME-3M melanoma it was 20.1 µM; in the assay on MCF7 breast it was 26.2 µM; with HOP-62 NSCLC it was 84.5 µM. Besides, the GI50 in the assay on M14 melanoma is 2.81 µM; in the assay with OVCAR-8 ovarian, 11.2 µM; in the assay on NCI-H522 lung, 33.6 µM; in the assay with SF-539 CNS it was 2.91 µM. In addition, the TGI is greater than 100 µM with HT29 colon; greater than 100 µM in the assay with SK-MEL-5 melanoma; greater than 100 µM in the assay on RPMI-8226 leukemia; 96.6 µM in the assay on MALME-3M melanoma; greater than 100 µM with MCF7 breast; greater than 100 µM in the assay with HOP-62 NSCLC. Further, the TGI is 60.6 µM with M14 melanoma, greater than 100 µM with OVCAR-8 ovarian, greater than 100 µM in the assay with NCI-H522 lung and 10.3 µM with SF-539 CNS.
As for `ClC1=NC(Cl)C(Cl)=N/C1=N\c1ncn[nH]1` (stereo unspecified), the GI50 with HT29 colon is 2.03 µM; in the assay with SK-MEL-5 melanoma, 5.57 µM; in the assay on RPMI-8226 leukemia it was 1.97 µM; with MALME-3M melanoma, 1.82 µM; in the assay with MCF7 breast, 1.78 µM; in the assay on HOP-62 NSCLC, 2.3 µM. Further, the GI50 with M14 melanoma is 2.64 µM; with OVCAR-8 ovarian, 2.27 µM; in the assay with NCI-H522 lung, 1.68 µM; in the assay on SF-539 CNS it was 2.22 µM. Moreover, the TGI in the assay on HT29 colon was 3.9 µM; in the assay on SK-MEL-5 melanoma it was 18.7 µM; in the assay on RPMI-8226 leukemia it was 4.43 µM; in the assay on MALME-3M melanoma, 3.7 µM; with MCF7 breast, 4.15 µM; in the assay on HOP-62 NSCLC, 5.11 µM. Moreover, the TGI worked out at 7.15 µM in the assay on M14 melanoma, 6.05 µM in the assay with OVCAR-8 ovarian, 3.55 µM in the assay on NCI-H522 lung and 5.6 µM in the assay with SF-539 CNS.
Consider `COc1cc(Cn2ccc3c2-c2oncc2CC3)cc(OC)c1`, for which the GI50 is 3.17 µM with HT29 colon; 2.75 µM in the assay with SK-MEL-5 melanoma; 4.98 µM with RPMI-8226 leukemia; 4.25 µM with MALME-3M melanoma; 2.2 µM with MCF7 breast; 4.4 µM in the assay with HOP-62 NSCLC. Further, the GI50 in the assay with M14 melanoma is 2.39 µM; in the assay with OVCAR-8 ovarian, 4.81 µM; in the assay with NCI-H522 lung, 3.57 µM; in the assay on SF-539 CNS, 2.8 µM. Further, the TGI in the assay on HT29 colon was greater than 100 µM; in the assay on SK-MEL-5 melanoma it was 10.4 µM; in the assay with RPMI-8226 leukemia, 50.3 µM; with MALME-3M melanoma, 37.9 µM; with MCF7 breast it was greater than 100 µM; in the assay with HOP-62 NSCLC, greater than 100 µM. For the same molecule, the TGI in the assay with M14 melanoma was found to be 9.45 µM; with OVCAR-8 ovarian it was 46.7 µM; in the assay on NCI-H522 lung, 40.4 µM; in the assay with SF-539 CNS it was 21.4 µM.

These data come from PubChem BioAssay (NCI).
